Reference: ChEMBL document CHEMBL5370626, “Targeting the Subpocket Enables the Discovery of Thiadiazole-Pyridazine Derivatives as Glutaminase C Inhibitors” (ACS Med Chem Lett, 2023)
Active and inactive are the calls of the source. No cut-off for these calls is given here.

Columns and labels:
[1] = MRT(0 to infinity) in Sprague-Dawley rat plasma at 100 mg/kg, po measured up to 48 hrs by LC-MS/MS analysis; assay type: ADME, organism-based
[2] = Mutagenicity in Salmonella typhimurium TA98 measured at 1.5 to 1000 ug per well for 48 to 72 hrs in presence of S9 liver fraction by mini-Ames test; assay type: toxicity, subcellular, Salmonella enterica subsp. enterica serovar Typhimurium; conditions: dose lower 1.5 µg, time lower 48 hrs, dose upper 1000 µg, time upper 72 hrs
[3] = Clearance in Sprague-Dawley rat plasma at 10 mg/kg, iv measured up to 48 hrs by LC-MS/MS analysis; assay type: ADME, organism-based
[4] = Tmax in Sprague-Dawley rat plasma at 10 mg/kg, iv measured up to 48 hrs by LC-MS/MS analysis; assay type: ADME, organism-based
A549 [5] = assay: Inhibition of colony formation in human A549 cells assessed as reduction of colony number at 1 uM measured after 4 days by crystal violet staining-based colony formation assay relative to control; assay type: functional; conditions: A549, 96 h, time 4 day
[6] = Mutagenicity in Salmonella typhimurium TA1535 measured at 1.5 to 1000 ug per well for 48 to 72 hrs by mini-Ames test; assay type: toxicity, Salmonella enterica subsp. enterica serovar Typhimurium; conditions: in vivo; dose lower 1.5 µg, time lower 48 hrs, dose upper 1000 µg, time upper 72 hrs
A549 [7] = assay: Antiproliferative activity against human A549 cells assessed as reduction in cell viability incubated for 72 hrs by Celltiter-glo assay; assay type: functional, cell-based; conditions: A549, 72 h
[8] = MRT(0 to t) in Sprague-Dawley rat plasma at 10 mg/kg, iv measured up to 48 hrs by LC-MS/MS analysis; assay type: ADME, organism-based
[9] = target: Sodium channel protein type 5 subunit alpha (Homo sapiens, UniProt Q14524); assay: Inhibition of human Nav1.5 channel stably expressed in CHO cells at -120 mV holding potential by whole cell patch-clamp assay; assay type: toxicity, cell-based
Chain of Sodium channel protein type 5 subunit alpha (Q14524 whole entry): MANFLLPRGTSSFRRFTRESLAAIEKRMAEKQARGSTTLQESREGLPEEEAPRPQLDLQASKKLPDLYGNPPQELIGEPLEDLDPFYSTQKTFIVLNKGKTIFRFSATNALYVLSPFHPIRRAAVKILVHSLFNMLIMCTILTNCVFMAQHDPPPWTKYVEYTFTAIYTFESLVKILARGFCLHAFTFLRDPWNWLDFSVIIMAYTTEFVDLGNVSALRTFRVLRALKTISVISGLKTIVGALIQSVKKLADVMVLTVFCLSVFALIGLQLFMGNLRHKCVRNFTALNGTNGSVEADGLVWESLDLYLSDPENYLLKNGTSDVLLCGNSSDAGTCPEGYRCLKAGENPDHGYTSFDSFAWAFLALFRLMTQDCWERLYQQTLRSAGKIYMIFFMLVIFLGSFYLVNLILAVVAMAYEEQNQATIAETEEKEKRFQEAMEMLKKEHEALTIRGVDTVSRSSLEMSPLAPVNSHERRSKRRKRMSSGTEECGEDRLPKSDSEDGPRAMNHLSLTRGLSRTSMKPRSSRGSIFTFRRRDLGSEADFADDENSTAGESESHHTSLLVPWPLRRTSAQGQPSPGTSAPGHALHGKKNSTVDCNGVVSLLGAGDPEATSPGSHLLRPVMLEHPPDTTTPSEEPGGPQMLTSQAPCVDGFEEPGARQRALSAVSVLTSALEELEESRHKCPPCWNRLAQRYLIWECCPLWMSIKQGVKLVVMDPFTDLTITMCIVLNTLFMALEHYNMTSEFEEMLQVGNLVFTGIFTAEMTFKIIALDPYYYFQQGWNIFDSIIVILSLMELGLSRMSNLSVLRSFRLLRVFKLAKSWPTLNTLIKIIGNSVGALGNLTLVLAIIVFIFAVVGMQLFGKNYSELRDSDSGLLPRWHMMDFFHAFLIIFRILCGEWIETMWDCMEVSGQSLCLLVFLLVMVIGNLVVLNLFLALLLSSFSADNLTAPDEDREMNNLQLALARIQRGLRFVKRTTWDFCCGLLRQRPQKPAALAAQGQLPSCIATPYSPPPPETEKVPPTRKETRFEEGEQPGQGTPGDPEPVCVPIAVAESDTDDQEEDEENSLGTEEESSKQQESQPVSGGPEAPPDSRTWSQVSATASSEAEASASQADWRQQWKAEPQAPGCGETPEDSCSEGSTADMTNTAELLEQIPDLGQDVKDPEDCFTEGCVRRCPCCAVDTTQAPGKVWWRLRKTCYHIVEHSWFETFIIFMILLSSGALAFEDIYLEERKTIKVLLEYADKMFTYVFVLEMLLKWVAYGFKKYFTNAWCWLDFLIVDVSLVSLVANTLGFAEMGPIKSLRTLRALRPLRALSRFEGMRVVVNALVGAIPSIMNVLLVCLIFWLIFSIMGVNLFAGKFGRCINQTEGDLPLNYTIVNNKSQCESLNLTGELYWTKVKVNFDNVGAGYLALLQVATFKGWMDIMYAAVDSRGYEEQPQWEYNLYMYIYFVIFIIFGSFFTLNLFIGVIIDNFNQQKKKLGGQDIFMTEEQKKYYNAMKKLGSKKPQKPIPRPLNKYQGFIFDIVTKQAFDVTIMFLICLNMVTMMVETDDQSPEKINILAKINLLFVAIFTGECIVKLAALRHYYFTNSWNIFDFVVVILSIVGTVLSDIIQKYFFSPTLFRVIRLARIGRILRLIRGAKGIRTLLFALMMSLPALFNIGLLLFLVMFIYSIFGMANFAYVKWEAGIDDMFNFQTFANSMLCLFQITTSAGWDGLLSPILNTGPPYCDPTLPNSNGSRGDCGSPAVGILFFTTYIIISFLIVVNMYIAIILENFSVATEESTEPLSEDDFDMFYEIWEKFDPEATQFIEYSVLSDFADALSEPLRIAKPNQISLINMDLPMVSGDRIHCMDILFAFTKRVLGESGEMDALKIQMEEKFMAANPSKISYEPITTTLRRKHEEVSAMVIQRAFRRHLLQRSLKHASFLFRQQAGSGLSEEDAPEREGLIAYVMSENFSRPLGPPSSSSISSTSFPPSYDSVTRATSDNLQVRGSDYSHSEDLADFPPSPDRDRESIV

[10] = Mutagenicity in Salmonella typhimurium TA1537 measured at 1.5 to 1000 ug per well for 48 to 72 hrs in presence of S9 liver fraction by mini-Ames test; assay type: toxicity, subcellular, Salmonella enterica subsp. enterica serovar Typhimurium; conditions: dose lower 1.5 µg, time lower 48 hrs, dose upper 1000 µg, time upper 72 hrs
[11] = Mutagenicity in Salmonella typhimurium TA100 measured at 1.5 to 1000 ug per well for 48 to 72 hrs by mini-Ames test; assay type: toxicity, Salmonella enterica subsp. enterica serovar Typhimurium; conditions: in vivo; dose lower 1.5 µg, time lower 48 hrs, dose upper 1000 µg, time upper 72 hrs
[12] = Mutagenicity in Salmonella typhimurium TA1537 measured at 1.5 to 1000 ug per well for 48 to 72 hrs by mini-Ames test; assay type: toxicity, Salmonella enterica subsp. enterica serovar Typhimurium; conditions: in vivo; dose lower 1.5 µg, time lower 48 hrs, dose upper 1000 µg, time upper 72 hrs
[13] = target: Voltage-gated inwardly rectifying potassium channel KCNH2 (Homo sapiens, UniProt Q12809); assay: Inhibition of human ERG expressed in HEK293 cells at -80 mV holding potential by whole cell patch-clamp assay; assay type: toxicity, cell-based
[14] = Mutagenicity in Salmonella typhimurium TA1535 measured at 1.5 to 1000 ug per well for 48 to 72 hrs in presence of S9 liver fraction by mini-Ames test; assay type: toxicity, subcellular, Salmonella enterica subsp. enterica serovar Typhimurium; conditions: dose lower 1.5 µg, time lower 48 hrs, dose upper 1000 µg, time upper 72 hrs
A549 [15] = assay: Inhibition of colony formation in human A549 cells assessed as reduction of colony number measured after 4 days by crystal violet staining-based colony formation assay; assay type: functional, cell-based; conditions: dose 10-1000 nM, time 4.0 day
[16] = target: T1, Glutaminase kidney isoform, mitochondrial (Homo sapiens) (UniProt O94925); assay: Inhibition of human GAC in A549 cells assessed as induction of ROS level incubated for 16 hrs by DCFH-DA staining based flow cytometric analysis; assay type: cell-based; conditions: dose 100-1000 nM
T1 sequence (whole entry): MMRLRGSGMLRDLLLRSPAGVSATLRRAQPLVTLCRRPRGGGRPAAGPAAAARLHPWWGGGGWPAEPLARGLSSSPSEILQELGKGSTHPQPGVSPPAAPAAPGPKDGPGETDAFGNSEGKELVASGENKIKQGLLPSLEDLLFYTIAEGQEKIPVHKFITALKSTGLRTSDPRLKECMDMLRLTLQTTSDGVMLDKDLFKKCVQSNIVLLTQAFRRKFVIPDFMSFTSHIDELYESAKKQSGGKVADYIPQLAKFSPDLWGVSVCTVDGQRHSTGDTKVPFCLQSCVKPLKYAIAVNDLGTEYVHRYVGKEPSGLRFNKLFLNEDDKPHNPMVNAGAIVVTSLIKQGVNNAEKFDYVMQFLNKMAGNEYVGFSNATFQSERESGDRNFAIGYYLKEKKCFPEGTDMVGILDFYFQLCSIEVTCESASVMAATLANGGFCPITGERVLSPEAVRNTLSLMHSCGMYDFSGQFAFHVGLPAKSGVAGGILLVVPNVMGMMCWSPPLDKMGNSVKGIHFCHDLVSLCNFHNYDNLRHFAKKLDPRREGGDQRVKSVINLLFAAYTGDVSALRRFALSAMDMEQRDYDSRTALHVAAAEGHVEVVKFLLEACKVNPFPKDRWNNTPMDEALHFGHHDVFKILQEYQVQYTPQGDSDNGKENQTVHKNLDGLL

[17] = AUC(0 to infinity) in Sprague-Dawley rat plasma at 10 mg/kg, iv measured up to 48 hrs by LC-MS/MS analysis; assay type: ADME, organism-based; set-up: dose 10 mg/kg, time < 48 hrs, route iv
[18] = AUC(0 to infinity) in Sprague-Dawley rat plasma at 100 mg/kg, po measured up to 48 hrs by LC-MS/MS analysis; assay type: ADME, organism-based; set-up: dose 100 mg/kg, time < 48 hrs, route po
[19] = Cmax in Sprague-Dawley rat plasma at 10 mg/kg, iv measured up to 48 hrs by LC-MS/MS analysis; assay type: ADME, organism-based; set-up: dose 10 mg/kg, time < 48 hrs, route iv
[20] = Tmax in Sprague-Dawley rat plasma at 100 mg/kg, po measured up to 48 hrs by LC-MS/MS analysis; assay type: ADME, organism-based
[21] = target: T1, Glutaminase kidney isoform, mitochondrial (Homo sapiens); assay: Inhibition of human GAC in A549 cells assessed as reduction in glutamate level at 100 to 1000 nM incubated for 16 hrs by colorimetric assay; assay type: cell-based; conditions: dose 100-1000 nM
[22] = Half life in Sprague-Dawley rat plasma at 100 mg/kg, po measured up to 48 hrs by LC-MS/MS analysis; assay type: ADME, organism-based
[23] = AUC(0 to t) in Sprague-Dawley rat plasma at 10 mg/kg, iv measured up to 48 hrs by LC-MS/MS analysis; assay type: ADME, organism-based; set-up: dose 10 mg/kg, time < 48 hrs, route iv
[24] = Mutagenicity in Salmonella typhimurium TA98 measured at 1.5 to 1000 ug per well for 48 to 72 hrs by mini-Ames test; assay type: toxicity, Salmonella enterica subsp. enterica serovar Typhimurium; conditions: in vivo; dose lower 1.5 µg, time lower 48 hrs, dose upper 1000 µg, time upper 72 hrs
[25] = Half life in Sprague-Dawley rat plasma at 10 mg/kg, iv measured up to 48 hrs by LC-MS/MS analysis; assay type: ADME, organism-based
[26] = target: Voltage-dependent L-type calcium channel subunit alpha-1C (Homo sapiens, UniProt Q13936); assay: Inhibition of Cav1.2 channel (unknown origin) incubated for 30 mins by Fluo-4 staining based FLIPR assay; assay type: toxicity; conditions: 0.5 h
Chain of Voltage-dependent L-type calcium channel subunit alpha-1C (Q13936 whole entry): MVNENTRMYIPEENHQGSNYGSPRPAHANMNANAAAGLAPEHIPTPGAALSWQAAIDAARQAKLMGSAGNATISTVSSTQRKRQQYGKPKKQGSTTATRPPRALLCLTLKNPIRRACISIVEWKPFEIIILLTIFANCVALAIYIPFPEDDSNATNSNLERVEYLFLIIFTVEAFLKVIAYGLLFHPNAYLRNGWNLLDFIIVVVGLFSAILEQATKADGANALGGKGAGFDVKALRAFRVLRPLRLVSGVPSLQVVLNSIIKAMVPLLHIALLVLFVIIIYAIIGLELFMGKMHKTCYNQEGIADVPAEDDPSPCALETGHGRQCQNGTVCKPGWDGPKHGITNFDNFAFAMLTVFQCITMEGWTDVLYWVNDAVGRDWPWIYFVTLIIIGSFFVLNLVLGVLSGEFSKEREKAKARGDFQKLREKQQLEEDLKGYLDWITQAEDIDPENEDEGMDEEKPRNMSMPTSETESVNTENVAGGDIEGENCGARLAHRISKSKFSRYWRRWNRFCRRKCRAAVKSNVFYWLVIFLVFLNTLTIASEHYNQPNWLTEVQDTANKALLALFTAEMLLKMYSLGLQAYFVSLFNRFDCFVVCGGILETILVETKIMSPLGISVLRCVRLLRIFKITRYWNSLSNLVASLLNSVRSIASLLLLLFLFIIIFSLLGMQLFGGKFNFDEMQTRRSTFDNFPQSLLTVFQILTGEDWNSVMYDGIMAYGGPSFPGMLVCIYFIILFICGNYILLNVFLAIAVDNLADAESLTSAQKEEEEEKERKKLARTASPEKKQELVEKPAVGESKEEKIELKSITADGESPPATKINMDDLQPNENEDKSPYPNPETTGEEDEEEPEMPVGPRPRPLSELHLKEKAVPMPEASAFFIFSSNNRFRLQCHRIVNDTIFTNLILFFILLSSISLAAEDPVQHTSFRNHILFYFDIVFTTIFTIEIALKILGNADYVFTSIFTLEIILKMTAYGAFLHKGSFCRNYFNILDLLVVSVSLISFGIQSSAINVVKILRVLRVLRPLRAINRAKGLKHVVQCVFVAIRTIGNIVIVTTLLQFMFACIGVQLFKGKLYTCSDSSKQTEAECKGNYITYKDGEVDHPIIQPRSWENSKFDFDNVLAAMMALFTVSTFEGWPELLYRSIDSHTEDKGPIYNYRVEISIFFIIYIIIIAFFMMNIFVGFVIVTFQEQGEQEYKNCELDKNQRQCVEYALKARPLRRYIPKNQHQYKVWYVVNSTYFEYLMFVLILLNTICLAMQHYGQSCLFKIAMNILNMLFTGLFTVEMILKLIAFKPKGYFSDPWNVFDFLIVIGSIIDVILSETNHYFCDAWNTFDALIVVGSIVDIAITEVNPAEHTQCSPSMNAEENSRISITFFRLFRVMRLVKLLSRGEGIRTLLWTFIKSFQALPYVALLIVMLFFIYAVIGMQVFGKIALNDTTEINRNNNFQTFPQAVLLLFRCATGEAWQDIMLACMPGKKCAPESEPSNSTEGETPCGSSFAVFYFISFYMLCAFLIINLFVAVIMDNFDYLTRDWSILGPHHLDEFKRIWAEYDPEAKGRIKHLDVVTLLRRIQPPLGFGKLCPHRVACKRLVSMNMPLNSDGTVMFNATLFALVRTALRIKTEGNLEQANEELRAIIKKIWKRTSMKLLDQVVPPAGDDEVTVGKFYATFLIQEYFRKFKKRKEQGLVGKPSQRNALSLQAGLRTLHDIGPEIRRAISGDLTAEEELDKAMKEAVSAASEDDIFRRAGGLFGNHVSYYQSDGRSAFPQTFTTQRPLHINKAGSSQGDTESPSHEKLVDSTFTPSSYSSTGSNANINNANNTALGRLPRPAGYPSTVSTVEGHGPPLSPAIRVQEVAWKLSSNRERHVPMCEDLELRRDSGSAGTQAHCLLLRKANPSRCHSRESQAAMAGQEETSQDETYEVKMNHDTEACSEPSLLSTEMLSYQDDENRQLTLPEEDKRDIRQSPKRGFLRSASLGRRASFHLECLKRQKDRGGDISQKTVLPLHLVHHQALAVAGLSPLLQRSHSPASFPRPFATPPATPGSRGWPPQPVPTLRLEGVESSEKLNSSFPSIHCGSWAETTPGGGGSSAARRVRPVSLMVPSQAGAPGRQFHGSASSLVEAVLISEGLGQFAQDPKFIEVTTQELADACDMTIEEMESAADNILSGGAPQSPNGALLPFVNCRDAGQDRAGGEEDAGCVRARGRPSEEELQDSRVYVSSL

[27] = Mutagenicity in Escherichia coli WP2 uvrA measured at 1.5 to 1000 ug per well for 48 to 72 hrs in presence of S9 liver fraction by mini-Ames test; assay type: toxicity, subcellular; conditions: dose lower 1.5 µg, time lower 48 hrs, dose upper 1000 µg, time upper 72 hrs
[28] = Mutagenicity in Escherichia coli WP2 uvrA measured at 1.5 to 1000 ug per well for 48 to 72 hrs by mini-Ames test; assay type: toxicity; conditions: in vivo; dose lower 1.5 µg, time lower 48 hrs, dose upper 1000 µg, time upper 72 hrs
[29] = Mutagenicity in Salmonella typhimurium TA100 measured at 1.5 to 1000 ug per well for 48 to 72 hrs in presence of S9 liver fraction by mini-Ames test; assay type: toxicity, subcellular, Salmonella enterica subsp. enterica serovar Typhimurium; conditions: dose lower 1.5 µg, time lower 48 hrs, dose upper 1000 µg, time upper 72 hrs
[30] = Cmax in Sprague-Dawley rat plasma at 100 mg/kg, po measured up to 48 hrs by LC-MS/MS analysis; assay type: ADME, organism-based; set-up: dose 100 mg/kg, time < 48 hrs, route po

O=C(Cc1cccc(Oc2ccccc2)c1)Nc1nnc(N[C@@H]2CCN(c3cccnn3)C2)s1
MRT inf [1]: 3.83 h
Activity [2]: Non-Toxic
clearance [3]: 36.4 mL/min/kg
Tmax [4]: 1.98 min
inhibition at 1 µM (A549 [5]): ~100%
Activity [6]: Non-Toxic
IC50 (A549 [7]): 0.00404 µM
MRT last at 48 h [8]: 1.52 h
INH [9]: > 30 µM
Activity [10]: Non-Toxic
Activity [11]: Non-Toxic
Activity [12]: Non-Toxic
IC50 [13]: 7.53 µM
Activity [14]: Non-Toxic
inhibition (A549 [15]): Dose-Dependent Effect
inhibition [16]: Dose-Dependent Effect
AUC(0-inf) [17]: 4630 ng·h/mL
AUC(0-inf) [18]: 2330 ng·h/mL
Cmax [19]: 6500 ng/mL
Tmax [20]: 2 h
inhibition [21]: Active
half-life [22]: 2.02 h
AUC(0-t) at 48 h [23]: 4630 ng·h/mL
Activity [24]: Non-Toxic
half-life [25]: 5.06 h
INH [26]: 21.71 µM
Activity [27]: Non-Toxic
Activity [28]: Non-Toxic
Activity [29]: Non-Toxic
Cmax [30]: 487 ng/mL
